Read-outs that look alike come from different tables or passages of the source.
Assays:
25-gene IFN score = assay: Correlation of AUC24,SS with whole blood 25-gene IFN score; format: in vivo, human; details: subset (5) of CANDLE patients
[1] = cited from earlier work
[2] = Population pharmacokinetic; format: in vivo, human; details: for AUC24,SS/Dose: AUC24,SS/total daily dose
serum IP-10 = assay: Correlation of AUC24,SS with serum CXCL10/IP-10 levels; format: in vivo, human; details: 189 observations in 18 patients, linear mixed model, p-value for slope 0.0002
[3] = popPK final model, 18 patients, oral
[4] = 18 patients, 54 patient-years of exposure

SMILES: CCS(=O)(=O)N1CC(CC#N)(n2cc(-c3ncnc4[nH]ccc34)cn2)C1 [baricitinib, Baricitinib]
- AUC24,SS at which CANDLE patients normalized their IFN scores (25-gene IFN score): 1500 to 2000 nM·h
- half-life ([1]; RA population): 12.5 h
- half-life ([1]; healthy adult subjects): 10 h
- effect of renal impairment on Cmax ([1]; moderate and severe renal impairment, ref data on file, Eli Lilly and Company): minimal effect
- half-life ([1]; psoriasis patients): 12.8 h
- projected initial exposure (AUC24,SS) with proposed starting dose ([2]; 20–40kg, eGFR ≥120 mL/min/1.73 m^2, initial dose 6 mg/day BID): 1077 to 2688 nM·h
- projected initial exposure (AUC24,SS) with proposed starting dose ([2]; <20kg, eGFR ≥120 mL/min/1.73 m^2, initial dose 6 mg/day TID): 1769 to 2112 nM·h
- projected initial exposure (AUC24,SS) with proposed starting dose ([2]; >40kg, eGFR ≥120 mL/min/1.73 m^2, initial dose 8 mg/day BID): 1082 to 1958 nM·h
- Covariate effect of GFR on Clearance, parameter for GFR-CL (%SEE) ([2]; CL/Ftypical=9.74×(eGFR/146.82)^0.444): 0.444 (24.8%)
- Covariate effect of Weight on V/F, parameter for WTV-V (%SEE) ([2]; V/Ftypical = 67.1 × e^0.0192·(WTV−27.2)): 0.0192 (15.0%)
- geometric mean AUC24,SS at clinically effective doses ([2]; all patients, final PK assessments): ~ 2388 nM*h
- dose proportionality of PK ([2]; dosing range of 1–14 mg daily): dose linearity
- AUC24,SS/Dose ([2]; eGFR ≥120 ml/min/1.73 m^2, 20–40kg (n=5), geometric mean (%CV)): 292 nM·h/mg
- AUC24,SS/Dose ([2]; eGFR ≥120 ml/min/1.73 m^2, <20kg (n=2), geometric mean (%CV)): 322 nM·h/mg
- AUC24,SS/Dose ([2]; eGFR ≥120 ml/min/1.73 m^2, >40kg (n=5), geometric mean (%CV)): 193 nM·h/mg
- AUC ([2]; human, plasma, oral, 6 mg/day, AUC24,SS, eGFR <120 ml/min/1.73 m^2, <20kg (n=2), final PK visit, geometric mean (%CV)): 3.08 µM·h
- CL/F ([2]; human, plasma, oral, 6.9 mg/day): 5.33 mL/min/kg
- half-life ([2]; human, plasma, oral, 6.9 mg/day, t1/2, eGFR ≥120 ml/min/1.73 m^2, 20–40kg (n=5), final PK visit, geometric mean (%CV)): 5 h
- CL/F ([2]; human, plasma, oral, 8 mg/day): 9.33 mL/min/kg
- AUC ([2]; human, plasma, oral, 8 mg/day, AUC24,SS, eGFR ≥120 ml/min/1.73 m^2, <20kg (n=2), final PK visit, geometric mean (%CV)): 2.58 µM·h
- Cmax ([2]; human, plasma, oral, 8 mg/day, eGFR ≥120 ml/min/1.73 m^2, <20kg (n=2), final PK visit, geometric mean (%CV)): 171 nM
- half-life ([2]; human, plasma, oral, 8 mg/day, t1/2, eGFR ≥120 ml/min/1.73 m^2, <20kg (n=2), final PK visit, geometric mean (%CV)): 4.4 h
- half-life ([2]; human, plasma, oral, 10 mg/day, t1/2, eGFR ≥120 ml/min/1.73 m^2, >40kg (n=5), final PK visit, geometric mean (%CV)): 7 h
- AUC ([2]; human, plasma, oral, AUC24,SS, eGFR <120 ml/min/1.73 m^2, >40kg (n=3), final PK visit, geometric mean (%CV)): 2.53 µM·h
- AUC ([2]; human, plasma, oral, AUC24,SS, eGFR ≥120 ml/min/1.73 m^2, 20–40kg (n=5), final PK visit, geometric mean (%CV)): 2.02 µM·h
- AUC ([2]; human, plasma, oral, AUC24,SS, eGFR ≥120 ml/min/1.73 m^2, >40kg (n=5), final PK visit, geometric mean (%CV)): 1.94 µM·h
- Cmax ([2]; human, plasma, oral, eGFR <120 ml/min/1.73 m^2, <20kg (n=2), final PK visit, geometric mean (%CV)): 229 nM
- Cmax ([2]; human, plasma, oral, eGFR <120 ml/min/1.73 m^2, >40kg (n=3), final PK visit, geometric mean (%CV)): 180 nM
- Cmax ([2]; human, plasma, oral, eGFR ≥120 ml/min/1.73 m^2, 20–40kg (n=5), final PK visit, geometric mean (%CV)): 150 nM
- Cmax ([2]; human, plasma, oral, eGFR ≥120 ml/min/1.73 m^2, >40kg (n=5), final PK visit, geometric mean (%CV)): 136 nM
- half-life ([2]; human, plasma, oral, estimated half-life, patient O3, >40 kg, eGFR 54–76 mL/min/1.73 m^2): 17 to 19.2 h
- AUC ([2]; human, plasma, oral, geometric mean AUC24,SS at clinically effective doses, all patients, final PK assessments): 2.39 µM·h
- half-life ([2]; human, plasma, oral, t1/2, eGFR <120 ml/min/1.73 m^2, <20kg (n=2), final PK visit, geometric mean (%CV)): 4.8 h
- half-life ([2]; human, plasma, oral, t1/2, eGFR <120 ml/min/1.73 m^2, >40kg (n=3), final PK visit, geometric mean (%CV)): 7.8 h
- Vd/F ([2]; human, plasma, po): 67.1 L
- Absorption duration D1, population estimate (%SEE) [2, 3]: 0.971 (14.8%) hr
- Apparent Clearance CL/F, population estimate (%SEE) [2, 3]: 9.74 (9.57%) L/hr
- patients who developed BK viremia [4]: 44%
- patients with Herpes Zoster [4]: 1 patient
- deaths during the program (mean exposure 35.4 months): No deaths
- most frequently reported TEAEs (over 54 patient-years): Upper respiratory tract infection
- slope of correlation of AUC24,SS with serum IP-10 levels (serum IP-10): −0.197

Source: publication PMC6089664 (Clinical pharmacology and therapeutics, 2017)
